Here are results for five compounds from patent publication US7084176B2, “N-arylphenylacetamide derivatives and medicinal compositions containing the same” (Dainippon Pharmaceutical Co., Ltd., priority 2001, dated 2006).

For data set [1] the following is noted: literature report; cited from earlier work.
In data set [2] the test system is VR1 receptor. Particulars: animal pain model; VR1 receptor antagonist; cited from earlier work.
The subject of data set [3] is male Std:ddY mice. As to the kind of experiment: Phenyl-1,4-benzoquinone-induced writhing test. In kind it is in vivo. Particulars: Mus musculus, po; for inhibition in vivo at 10 mg/kg: 1 h, orally administered at a dose of 10 mg/kg, 60 minutes before PBQ, read-out: Inhibitory percentage (%); for ED50: oral administration, writhing inhibition, logit analysis, read-out: ED50 (mg/kg po). The gist of the method: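 Compounds were given orally suspended in 0.5% tragacanth; subcutaneous controls got saline with 10% Tween 80 and 10% ethanol. Writhing counts after phenyl-1,4-benzoquinone were compared with vehicle controls as % inhibition [(A−B)/A]×100. ED50 (mg/kg) was derived by logit analysis.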
For orientation: Writhing tests count abdominal constrictions after an irritant is injected.

In data set [4] the test system is Jcl:SD strain male rats. The experiment in a line: Study of pungency (eye wiping test). Type of data set: in vivo. Particulars: a drop into the eye of rats, counted for 3 minutes, average ± S.E.M. The procedure: Experiment 2: Study of Pungency (Eye Wiping Test)
The pungency of the test compounds were studied referring to the method of Jancso et al. [Acta Physiol. Acad. Sci. Hung., 19, 113–131 (1961)] and the method of Szallasi et al. [Brit. J. Pharmacol., 119, 283–290 (1996)]. A test compound was dissolved in a physiological saline solution containing 10% ethanol and 10% Tween 80 into various concentrations (μg/ml), and a drop of the solution thereof was added dropwise into the eye of Jcl:SD strain male rats (5 to 25 […] per group, body weight; 220 to 280 g). Then, the number of the protective wiping movements with forefoot was counted for 3 minutes, and was considered as an index for pungency. The test results are expressed as average value±S.E.M., and the statistical significant differences between each test compound-treated group and the control group were analyzed using non-parametric Dunnett's multiple range test, and p<0.05 was considered as significant difference.

Take `CCCCCc1ccc(C(=O)NCc2ccc(O)c(OC)c2)cc1` [N-(4-hydroxy-3-methoxybenzyl)-4-pentylbenzamide]: the analgesic effect entry in data set [1] is “no analgesic effect”.
`Oc1cc2c(cc1O)CN(C(=S)NCCc1ccc(Cl)cc1)CCC2` [capsazepin]: in data set [2], the analgesic effect result is “significant analgesic effect”.
`COc1cc(CC(=O)Nc2cccc(-c3cccc(F)c3)c2)ccc1OCCN` [Example 66, 4-(2-aminoethoxy)-N-[3-(3-fluorophenyl)phenyl]-3-methoxyphenylacetamide]: the inhibition in vivo at 10 mg/kg in data set [3] stood at 100%. Further, the “Number of wiping movements” value is listed as 5.6 ± 2.4 in data set [4] (concentration 100 μg/ml); “no significant increase” in data set [4] (concentration 500 μg/ml); 3.6 ± 1.6 in data set [4] (concentration 500 μg/ml, listed as Ex. 66).
Consider `COc1cc(CC(=O)Nc2cccc(-c3cccc(Oc4ccccc4)c3)c2)ccc1OCCN` [Example 186, 4-(2-aminoethoxy)-3-methoxy-N-[3-(3-phenoxyphenyl)phenyl]-phenylacetamide], for which the inhibition in vivo at 10 mg/kg in data set [3] was found to be 84.3%. Further, in data set [3], the ED50 worked out at 1.83 mg/kg. In addition, the entries for the “Number of wiping movements” value in data set [4] (concentration 100 μg/ml) and in data set [4] (concentration 500 μg/ml) were 4.0 ± 1.1 and 12.2 ± 2.0, respectively.
On to `COc1cc(CC(=O)Nc2ccc3c(c2)C(=O)C(Cc2ccccc2)CC3)ccc1OCCN` (stereo not drawn) [Example 225, 4-(2-aminoethoxy)-3-methoxy-N-[1-oxo-2-phenylmethyl-1,2,3,4-tetrahydronaphthalen-7-yl]phenylacetamide], for which, in data set [3], the inhibition in vivo at 10 mg/kg turned out to be 73.5%. Moreover, the ED50 in data set [3] came to 4.79 mg/kg. The “Number of wiping movements” value was “no significant increase” in data set [4] (concentration 500 μg/ml); 4.4 ± 2.1 in data set [4] (concentration 500 μg/ml, listed as Ex. 225); 1.6 ± 1.2 in data set [4] (concentration 1000 μg/ml).
